Reference: PubChem BioAssay (NCI)
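Results reflect a 48-hour exposure of cells in 96-well plates to compound at five concentrations. Definition used: TGI = concentration required for complete inhibition of growth.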

Key:
Test in all cases: NCI-60 cell line screen, 48 h
NCI-H522 lung = system: NCI-H522 lung
HT29 colon = system: HT29 colon
RPMI-8226 leukemia = system: RPMI-8226 leukemia
HCT-15 colon = system: HCT-15 colon
SNB-75 CNS = system: SNB-75 CNS
OVCAR-4 ovarian = system: OVCAR-4 ovarian
HOP-92 NSCLC = system: HOP-92 NSCLC
K-562 leukemia = system: K-562 leukemia
UACC-257 melanoma = system: UACC-257 melanoma
SK-MEL-28 melanoma = system: SK-MEL-28 melanoma
HL-60(TB) leukemia = system: HL-60(TB) leukemia
T-47D breast = system: T-47D breast
EKVX NSCLC = system: EKVX NSCLC
SR leukemia = system: SR leukemia
MALME-3M melanoma = system: MALME-3M melanoma
CCRF-CEM leukemia = system: CCRF-CEM leukemia
MCF7 breast = system: MCF7 breast
U251 CNS = system: U251 CNS
ACHN renal = system: ACHN renal
TK-10 renal = system: TK-10 renal
NCI-H460 lung = system: NCI-H460 lung
SNB-19 CNS = system: SNB-19 CNS
NCI/ADR-RES ovarian = system: NCI/ADR-RES ovarian
NCI-H23 lung = system: NCI-H23 lung
SW-620 colon = system: SW-620 colon
IGROV1 ovarian = system: IGROV1 ovarian
NCI-H226 lung = system: NCI-H226 lung
SF-539 CNS = system: SF-539 CNS
MDA-MB-435 = system: MDA-MB-435
MOLT-4 leukemia = system: MOLT-4 leukemia
SK-MEL-2 melanoma = system: SK-MEL-2 melanoma
HOP-62 NSCLC = system: HOP-62 NSCLC
LOX IMVI melanoma = system: LOX IMVI melanoma
HS 578T breast = system: HS 578T breast
OVCAR-5 ovarian = system: OVCAR-5 ovarian
BT-549 breast = system: BT-549 breast
KM12 colon = system: KM12 colon
MDA-MB-231 breast = system: MDA-MB-231 breast
RXF 393 renal = system: RXF 393 renal
A549 NSCLC = system: A549 NSCLC
COLO 205 colon = system: COLO 205 colon
M14 melanoma = system: M14 melanoma
A498 renal = system: A498 renal
SF-268 CNS = system: SF-268 CNS
PC-3 prostate = system: PC-3 prostate
SF-295 CNS = system: SF-295 CNS
SK-OV-3 ovarian = system: SK-OV-3 ovarian
MDA-N = system: MDA-N
UACC-62 melanoma = system: UACC-62 melanoma
CAKI-1 renal = system: CAKI-1 renal
SK-MEL-5 melanoma = system: SK-MEL-5 melanoma
HCT-116 colon = system: HCT-116 colon
HCC-2998 colon = system: HCC-2998 colon
UO-31 renal = system: UO-31 renal
OVCAR-8 ovarian = system: OVCAR-8 ovarian
OVCAR-3 ovarian = system: OVCAR-3 ovarian
SN12C renal = system: SN12C renal
DU-145 prostate = system: DU-145 prostate

O=C(OC1C=C=CS(=O)(=O)CC#C/C=C\1)c1cnc2ccccc2n1 (stereo not drawn)
TGI (NCI-H522 lung): 51.6 µM | TGI (HT29 colon): > 100 µM | TGI (RPMI-8226 leukemia): > 100 µM | TGI (HCT-15 colon): > 100 µM | TGI (SNB-75 CNS): > 100 µM | TGI (OVCAR-4 ovarian): > 100 µM | TGI (HOP-92 NSCLC): 90.1 µM | TGI (K-562 leukemia): > 100 µM | TGI (UACC-257 melanoma): > 100 µM | TGI (SK-MEL-28 melanoma): > 100 µM | TGI (HL-60(TB) leukemia): > 100 µM | TGI (T-47D breast): > 100 µM | TGI (EKVX NSCLC): > 100 µM | TGI (SR leukemia): > 100 µM | TGI (MALME-3M melanoma): > 100 µM | TGI (CCRF-CEM leukemia): > 100 µM | TGI (MCF7 breast): > 100 µM | TGI (U251 CNS): > 100 µM | TGI (ACHN renal): > 100 µM | TGI (TK-10 renal): > 100 µM | TGI (NCI-H460 lung): > 100 µM | TGI (SNB-19 CNS): > 100 µM | TGI (NCI/ADR-RES ovarian): > 100 µM | TGI (NCI-H23 lung): > 100 µM | TGI (SW-620 colon): > 100 µM | TGI (IGROV1 ovarian): > 100 µM | TGI (NCI-H226 lung): > 100 µM | TGI (SF-539 CNS): > 100 µM | TGI (MDA-MB-435): > 100 µM | TGI (MOLT-4 leukemia): > 100 µM | TGI (SK-MEL-2 melanoma): > 100 µM | TGI (HOP-62 NSCLC): > 100 µM | TGI (LOX IMVI melanoma): > 100 µM | TGI (HS 578T breast): > 100 µM | TGI (OVCAR-5 ovarian): > 100 µM | TGI (BT-549 breast): > 100 µM | TGI (KM12 colon): > 100 µM | TGI (MDA-MB-231 breast): > 100 µM | TGI (RXF 393 renal): > 100 µM | TGI (A549 NSCLC): > 100 µM | TGI (COLO 205 colon): > 100 µM | TGI (M14 melanoma): > 100 µM | TGI (A498 renal): > 100 µM | TGI (SF-268 CNS): > 100 µM | TGI (PC-3 prostate): > 100 µM | TGI (SF-295 CNS): > 100 µM | TGI (SK-OV-3 ovarian): > 100 µM | TGI (MDA-N): > 100 µM | TGI (UACC-62 melanoma): > 100 µM | TGI (CAKI-1 renal): > 100 µM | TGI (SK-MEL-5 melanoma): > 100 µM | TGI (HCT-116 colon): > 100 µM | TGI (HCC-2998 colon): > 100 µM | TGI (UO-31 renal): > 100 µM | TGI (OVCAR-8 ovarian): > 100 µM | TGI (OVCAR-3 ovarian): > 100 µM | TGI (SN12C renal): > 100 µM | TGI (DU-145 prostate): > 100 µM
